Measurements from PMC8147254, “Efflux at the Blood-Brain Barrier Reduces the Cerebral Exposure to Ochratoxin A, Ochratoxin α, Citrinin and Dihydrocitrinone” (Toxins, 2021).

How the values were obtained:
PBCEC [1] = details: 10 µM
PBCEC [2] = type: cell-based, porcine; details: levels higher than 100 µM; data not shown
Protocol: In order to study the barrier integrity PBCEC were incubated with 1 µM OTA, OTα, CIT and DHCIT in the apical compartment (blood side) of Transwell® filter inserts for 48 h. The TEER values as well as the electrical capacitance (cCL) were monitored by cellular impedance spectroscopy (Figure 4A,B). As a negative control the permeability of […] was measured after 48 h. Sucrose is not transported by any cellular transport protein and represents a marker for an intact BBB.
For barrier integrity, TEER values were monitored using a cellZscope® cellular impedance spectrometer (nanoAnalytics, Münster, Germany). […]. The detailed protocols can be found in the Supplementary Materials. […]
6.1. Cellular impedance spectroscopy
To monitor the barrier integrity during all transfer studies, the transendothelial electrical resistance (TEER) was measured with a cellZscope® cellular impedance spectrometer (nanoAnalytics, Münster, Germany) using a module suitable for 24 Transwell® filter inserts. After the mycotoxins were added to the cell culture medium, TEER was analyzed until the end of the experiment (48 h). The waiting time after each run was set to 10 min, resulting in 60 scans per 48 h.
The results were normalized to the TEER values of the first impedance spectrum of each well. Data processing was performed using the cellZscope 1.3.4 software (nanoAnalytics, Münster, Germany).

Compound | cellular viability (dehydrogenase activity) compared to the negative control (PBCEC [1]) [%] | effect on PBCEC barrier integrity (PBCEC [2])
CC(=O)OC[C@]12C[C@H](OC(=O)CC(C)C)C(C)=C[C@H]1O[C@@H]1[C@H](O)[C@@H](OC(C)=O)[C@@]2(C)[C@]12CO2 [T-2 toxin, reference compound] | 2 ± 1 | –
CCCN(CCC)S(=O)(=O)c1ccc(C(=O)O)cc1 [probenecid, 4-(N,N-dipropylaminosulfonyl)benzoic acid, reference compound] | – | impaired the PBCEC barrier integrity
